These are literature values, as cited in patent US7718667B2, “Fused aminopiperidines as dipeptidyl peptidase-IV inhibitors for the treatment or prevention of diabetes” (Merck Sharp & Dohme Corp., priority 2004, dated 2010).

One data set concerns rats. The note with it: survival doubled from day 7.
Another data set concerns mouse. The note with it: cyclophosphamide-induced neutropenia.
The target in another data set is T1, DPP-IV (Homo sapiens, UniProt P27487).
T1 construct: GRF is rapidly degraded in plasma to GRF[3-44]; from tissue
T1 sequence (P27487 39-766 limits assumed, species assumed): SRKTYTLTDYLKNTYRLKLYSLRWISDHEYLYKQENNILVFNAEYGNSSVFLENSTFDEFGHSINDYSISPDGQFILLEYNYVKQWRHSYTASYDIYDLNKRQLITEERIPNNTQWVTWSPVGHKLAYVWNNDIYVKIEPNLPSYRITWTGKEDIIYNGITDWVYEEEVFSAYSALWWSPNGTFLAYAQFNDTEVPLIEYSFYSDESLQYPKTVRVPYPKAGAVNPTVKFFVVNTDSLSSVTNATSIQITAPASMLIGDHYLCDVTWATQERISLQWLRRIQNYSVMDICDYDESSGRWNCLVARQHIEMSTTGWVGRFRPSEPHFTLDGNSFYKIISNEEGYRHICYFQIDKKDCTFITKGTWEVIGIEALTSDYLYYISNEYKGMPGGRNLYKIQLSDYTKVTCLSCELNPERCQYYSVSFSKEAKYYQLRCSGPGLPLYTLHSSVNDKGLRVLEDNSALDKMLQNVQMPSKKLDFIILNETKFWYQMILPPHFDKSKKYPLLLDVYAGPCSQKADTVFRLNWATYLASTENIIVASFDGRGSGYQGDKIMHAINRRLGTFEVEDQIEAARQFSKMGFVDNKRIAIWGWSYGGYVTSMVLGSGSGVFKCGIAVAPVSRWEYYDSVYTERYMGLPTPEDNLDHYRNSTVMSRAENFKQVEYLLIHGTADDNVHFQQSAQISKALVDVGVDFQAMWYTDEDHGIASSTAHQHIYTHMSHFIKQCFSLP

Take `CC(C)N1CCC(c2ccccc2)(c2ccccc2)CC1` [Prodipine, Pro-Pro-diphenyl-phosphonate]: the cardiac allograft survival in the data set with rats is recorded as 14 day.

Turning to `CC(C)[C@H](N)C(=O)N1CCC[C@H]1B(O)O` [Val-Boro-Pro], the hematopoiesis entry in the data set on mouse was “stimulated hematopoiesis”.

On to `CC[C@H](C)[C@H](N)C(=O)N1CCC[C@H]1C(=O)N[C@H](C(=O)O)[C@@H](C)CC` [diprotin A], for which the “degradation of GRF in plasma to GRF[3-44]” value at DPP-IV is “prevented”.
